The test relates to P. falciparum infected erythrocytes. The test is described as follows: P. falciparum growth inhibition assay ([3H]hypoxanthine incorporation). Type of test: cell-based, Plasmodium falciparum. Conditions: Plasmodium falciparum, Erythrocyte. On the procedure: P. falciparum Growth Inhibition Assay.
The sensitivity of P. falciparum infected erythrocytes to the compound was determined in duplicate using the [3H]hypoxanthine incorporation method with an inoculum of 0.5% parasitemia (ring stage) and 2% hematocrit. The parasites were grown in RPMI 1640, 25 mM HEPES and supplemented with 5% Albumax. Plates are incubated at 37° C., 5% CO2, 5% O2, 90% N2. After 24 h of incubation, [3H]hypoxanthine is added and plates are incubated for another 24 h. After that period, plates are harvested on a glass fiber filter using a TOMTEC Cell harvester 96. Filters are dried and melt on scintillator sheets and the bound radioactivity is quantified by use of a Wallac Microbeta Trilux (Model 1450 LS—Perkin Elmer). IC50s are determined using Grafit 7 program (Grafit program; Erithacus Software, Horley, Surrey, United Kingdom).
Each example compound was tested generally in accordance with the above-mentioned assay and the PfIC50 value for each compound is reported in the Table below and according to the following: […]

Where [1] appears, read: [3H]hypoxanthine incorporation, 0.5% parasitemia, 2% hematocrit, 48 h, read-out: PfIC50 Media.
Where [2] appears, read: hydrochloride salt of the example, same assay, read-out: PfIC50 Media (uM), (HCl).
Where [3] appears, read: hydrochloride salt, read-out: average PfIC50 of the hydrochloride salt.

The structures appear in SMILES notation. Structures can show the parent of a compound that is named as a salt. Where two headings read alike, the source gives them in different places.

For the compound `O=C(c1ccc(OC[C@H](O)Cn2ccnc2)cc1)N1CC[C@H](c2ccc(F)cc2)C1` [Example 20, ((R)-3-(4-fluorophenyl)pyrrolidin-1-yl)(4-((R)-2-hydroxy-3-(1H-imidazol-1-yl)propoxy)phenyl)methanone], the IC50 under setting [1] was below 0.1 µM.
Take `Cc1nnnn1C[C@@H](O)COc1ccc(C(=O)N2CC[C@H](c3ccc(F)cc3)C2)cc1` [Example 21, ((R)-3-(4-fluorophenyl)pyrrolidin-1-yl)(4-((R)-2-hydroxy-3-(5-methyl-1H-tetrazol-1-yl)propoxy)phenyl)methanone]: under setting [1], the IC50 lay in the range of 0.5 to 1 µM.
With `Cc1nnn(C[C@@H](O)COc2ccc(C(=O)N3CC[C@H](c4ccc(F)cc4)C3)cc2)n1` [Example 22, ((R)-3-(4-fluorophenyl)pyrrolidin-1-yl)(4-((R)-2-hydroxy-3-(5-methyl-2H-tetrazol-2-yl)propoxy)phenyl)methanone], under setting [1], the IC50 is below 0.1 µM.
In the case of `Cn1nnc(C[C@@H](O)COc2ccc(C(=O)N3CC[C@H](c4ccc(F)cc4)C3)cc2)n1` [Example 23, ((R)-3-(4-fluorophenyl)pyrrolidin-1-yl)(4-((R)-2-hydroxy-3-(2-methyl-2H-tetrazol-5-yl)propoxy)phenyl)methanone], the IC50 under setting [1] was below 0.1 µM.
On the same count and under the same terms, the result for `Cn1nnnc1C[C@@H](O)COc1ccc(C(=O)N2CC[C@H](c3ccc(F)cc3)C2)cc1` [Example 24, ((R)-3-(4-fluorophenyl)pyrrolidin-1-yl)(4-((R)-2-hydroxy-3-(1-methyl-1H-tetrazol-5-yl)propoxy)phenyl)methanone] reads 0.1 to 0.5 µM; that for `O=C(c1ccc(OC[C@H](O)Cc2nnn[nH]2)cc1)N1CC[C@H](c2ccc(F)cc2)C1` [Example 25, ((R)-3-(4-fluorophenyl)pyrrolidin-1-yl)(4-((R)-2-hydroxy-3-(1H-tetrazol-5-yl)propoxy)phenyl)methanone], 1 to 5 µM; that for `O=C(c1ccc(OC[C@H](O)Cn2cnnn2)cc1F)N1CC[C@H](c2ccc(F)cc2)C1` [Example 26, (2-fluoro-4-((R)-2-hydroxy-3-(1H-tetrazol-1-yl)propoxy)phenyl)((R)-3-(4-fluorophenyl)pyrrolidin-1-yl)methanone], 0.1 to 0.5 µM.
With `O=C(c1ccc(OC[C@H](O)Cn2ncnn2)cc1F)N1CC[C@H](c2ccc(F)cc2)C1` [Example 27, (2-fluoro-4-((R)-2-hydroxy-3-(2H-tetrazol-2-yl)propoxy)phenyl)((R)-3-(4-fluorophenyl)pyrrolidin-1-yl)methanone], the IC50 was below 0.1 µM under setting [1] and at most 0.05 µM (read-out: average PfIC50).
Take `O=C(c1ccc(OC[C@H](O)Cn2cnnn2)cc1)N1CC[C@H](c2ccc(Cl)cc2)C1` [Example 28, ((R)-3-(4-chlorophenyl)pyrrolidin-1-yl)(4-((R)-2-hydroxy-3-(1H-tetrazol-1-yl)propoxy)phenyl)methanone]: the IC50 under setting [1] is below 0.1 µM.
For the compound `O=C(c1ccc(OC[C@H](O)Cn2ncnn2)cc1)N1CC[C@H](c2ccc(Cl)cc2)C1` [Example 29, ((R)-3-(4-chlorophenyl)pyrrolidin-1-yl)(4-((R)-2-hydroxy-3-(2H-tetrazol-2-yl)propoxy)phenyl)methanone], the IC50 under setting [1] is below 0.1 µM and the IC50 (read-out: average PfIC50) was at most 0.05 µM.
In the case of `O=C(c1ccc(OC[C@H](O)Cn2cncn2)cc1)N1CC[C@H](c2ccc(Cl)cc2)C1` [Example 30, ((R)-3-(4-chlorophenyl)pyrrolidin-1-yl) (4-((R)-2-hydroxy-3-(1H-1,2,4-triazol-1-yl)propoxy)phenyl)methanone], the IC50 under setting [1] is below 0.1 µM.
Regarding `O=C(c1ccc(OC[C@H](O)Cn2nccn2)cc1)N1CC[C@H](c2ccc(Cl)cc2)C1` [Example 31, ((R)-3-(4-chlorophenyl)pyrrolidin-1-yl)(4-((R)-2-hydroxy-3-(2H-1,2,3-triazol-2-yl)propoxy)phenyl)methanone], the IC50 was below 0.1 µM under setting [1] and at most 0.05 µM (read-out: average PfIC50).
Regarding `O=C(c1ccc(OC[C@H](O)Cn2ccnn2)cc1)N1CC[C@H](c2ccc(Cl)cc2)C1` [Example 32, ((R)-3-(4-chlorophenyl)pyrrolidin-1-yl)(4-((R)-2-hydroxy-3-(1H-1,2,3-triazol-1-yl)propoxy)phenyl)methanone], the IC50 was below 0.1 µM under setting [1] and at most 0.05 µM (read-out: average PfIC50).
With `O=C(c1ccc(OC[C@H](O)Cn2cnnn2)cc1F)N1CC[C@H](c2ccc(Cl)cc2)C1` [Example 33, ((R)-3-(4-chlorophenyl)pyrrolidin-1-yl) (2-fluoro-4-((R)-2-hydroxy-3-(1H-tetrazol-1-yl)propoxy)phenyl)methanone], the IC50 under setting [1] was in the range of 0.1 to 0.5 µM.
Turning to `O=C(c1ccc(OC[C@H](O)Cn2ncnn2)cc1F)N1CC[C@H](c2ccc(Cl)cc2)C1` [Example 34, ((R)-3-(4-chlorophenyl)pyrrolidin-1-yl) (2-fluoro-4-((R)-2-hydroxy-3-(2H-tetrazol-2-yl)propoxy)phenyl)methanone], the IC50 under setting [1] is below 0.1 µM.
For the compound `NC(=O)c1nnn(C[C@@H](O)COc2ccc(C(=O)N3CC[C@H](c4ccc(F)cc4)C3)cc2)n1` [Example 38, 2-((R)-3-(4-((R)-3-(4-Fluorophenyl)pyrrolidine-1-carbonyl)phenoxy)-2-hydroxypropyl)-2H-tetrazole-5-carboxamide], the IC50 under setting [1] was 0.1 to 0.5 µM.
Regarding `N#Cc1nnn(C[C@@H](O)COc2ccc(C(=O)N3CC[C@H](c4ccc(F)cc4)C3)cc2)n1` [Example 39, 2-((R)-3-(4-((R)-3-(4-Fluorophenyl)pyrrolidine-1-carbonyl)phenoxy)-2-hydroxypropyl)-2H-tetrazole-5-carbonitrile], the IC50 under setting [1] fell in the range of 0.1 to 0.5 µM.
As for `N[C@@H](COc1ccc(C(=O)N2CC[C@H](c3ccc(F)cc3)C2)cc1)Cn1ncnn1` [Example 45, (4-((R)-2-Amino-3-(2H-tetrazol-2-yl)propoxy)phenyl)((R)-3-(4-fluorophenyl)pyrrolidin-1-yl)methanone], the IC50 under setting [1] is below 0.1 µM, the IC50 under setting [2] is below 0.1 µM, the IC50 under setting [3] turned out to be 0.03 µM and the IC50 (read-out: average PfIC50) worked out at 0.018 µM.
On to `N[C@@H](COc1ccc(C(=O)N2CC[C@H](c3ccc(F)cc3)C2)cc1)Cn1cnnn1` [Example 46, (4-((R)-2-amino-3-(1H-tetrazol-1-yl)propoxy)phenyl)((R)-3-(4-fluorophenyl)pyrrolidin-1-yl)methanone], for which the IC50 under setting [1] is below 0.1 µM.
Turning to `N[C@@H](COc1ccc(C(=O)N2CC[C@H](c3ccc(Cl)cc3)C2)cc1)Cn1cnnn1` [Example 47, (4-((R)-2-amino-3-(1H-tetrazol-1-yl)propoxy)phenyl)((R)-3-(4-chlorophenyl)pyrrolidin-1-yl)methanone], the IC50 runs as follows: under setting [1], below 0.1 µM; under setting [2], below 0.1 µM.
As for `N[C@@H](COc1ccc(C(=O)N2CC[C@H](c3ccc(Cl)cc3)C2)cc1)Cn1ncnn1` [Example 48, (4-((R)-2-amino-3-(2H-tetrazol-2-yl)propoxy)phenyl)((R)-3-(4-chlorophenyl)pyrrolidin-1-yl)methanone], the IC50 by setting is: under setting [1], below 0.1 µM; (read-out: average PfIC50) at most 0.05 µM.
Regarding `N[C@H](COc1ccc(C(=O)N2CC[C@H](c3ccc(F)cc3)C2)cc1)Cn1ncnn1` [Example 49, (4-((S)-2-amino-3-(2H-tetrazol-2-yl)propoxy)phenyl)((R)-3-(4-fluorophenyl)pyrrolidin-1-yl)methanone, Hydrochloride], the IC50 by setting is: under setting [1], 0.1 to 0.5 µM; under setting [3], 0.31 µM.
For the compound `N[C@@H](COc1ccc(C(=O)N2CC[C@@H](c3ccc(F)cc3)C2)cc1)Cn1ncnn1` [Example 50, (4-((R)-2-amino-3-(2H-tetrazol-2-yl)propoxy)phenyl)((S)-3-(4-fluorophenyl)pyrrolidin-1-yl)methanone, Hydrochloride], the IC50 under setting [1] was in the range of 0.1 to 0.5 µM and the IC50 under setting [3] was found to be 0.219 µM.
In the case of `Cl.N[C@H](COc1ccc(C(=O)N2CC[C@@H](c3ccc(F)cc3)C2)cc1)Cn1ncnn1` [Example 51, (4-((S)-2-amino-3-(2H-tetrazol-2-yl)propoxy)phenyl)((S)-3-(4-fluorophenyl)pyrrolidin-1-yl)methanone, Hydrochloride], the IC50 under setting [3] was above 5 µM.
`N[C@@H](COc1ccc(C(=O)N2CC[C@H](c3ccc(F)cc3)C2)cc1)Cn1cncn1` [Example 52, (4-((R)-2-amino-3-(1H-1,2,4-triazol-1-yl)propoxy)phenyl)((R)-3-(4-fluorophenyl)pyrrolidin-1-yl)methanone, Hydrochloride]: the IC50 under setting [1] was in the range of 0.1 to 0.5 µM.
For `N[C@@H](COc1ccc(C(=O)N2CC[C@H](c3ccc(F)cc3)C2)cc1)Cn1nccn1` [Example 53, (4-((R)-2-amino-3-(2H-1,2,3-triazol-2-yl)propoxy)phenyl)((R)-3-(4-fluorophenyl)pyrrolidin-1-yl)methanone, Hydrochloride], under setting [1], the IC50 was below 0.1 µM.
`N[C@@H](COc1ccc(C(=O)N2CC[C@H](c3ccc(F)cc3)C2)cc1)Cn1cccn1` [Example 55, (4-((R)-2-amino-3-(1H-pyrazol-1-yl)propoxy)phenyl)((R)-3-(4-fluorophenyl)pyrrolidin-1-yl)methanone, Hydrochloride]: under setting [1], the IC50 was in the range of 0.1 to 0.5 µM.
As to `N[C@@H](COc1ccc(C(=O)N2CC[C@H](c3ccc(F)cc3)C2)c(F)c1)Cn1ncnn1` [Example 56, (4-((R)-2-amino-3-(2H-tetrazol-2-yl)propoxy)-2-fluorophenyl)((R)-3-(4-fluorophenyl)pyrrolidin-1-yl)methanone, Hydrochloride], under setting [1], the IC50 was 0.1 to 0.5 µM.

Source of the values: patent publication US11453657B2 (GlaxoSmithKline Intellectual Property Development Limited, priority 2018, dated 2022).
